Assay results from patent US5882881A, “Inhibition of cyst formation by cytoskeletal specific drugs” (priority 1998, dated 1999).
Values joined by “and” are separate entries in the source; they are usually repeats but may differ in a detail not shown here. Equal entries are not always repeated.

Key:
[1] = tested on: normal and polycystic human kidney epithelial cells; settings: embedded in type 1 collagen; cited from earlier work
Murine CPK Cells [2] = test: In vitro cyst formation and cyst size in suspension culture of murine CPK cells; type: cell-based, mouse
Protocol: At 10, 21 and 28 days after birth, mice having congenital polycystic kidney disease (CPK) and their phenotypically normal littermates were sacrificed by cervical dislocation. Kidneys were harvested aseptically and washed with DMEM/F12 (Sigma Chemical Co., St. Louis, Mo.) in a 1:1 mix. Each decapsulated kidney was chopped into cubes (1 mm) and incubated in 5 ml of collagenase solution composed of 1 mg/ml collagenase type IV (Worthington Biochemical Corporation, Freehold, N.J.), 1 mg/ml egg white trypsin inhibitor (Worthington) in 1:1 DMEM/F12.
The top 12 mls, which contained both single cells and aggregates of up to 10 cells, as assessed by inverted phase-ontrast microscopy, were placed in 2 ml aliquots in the wells of plastic culture plates (Corning, N.Y.) precoated with 1% agarose in DMEM:F12 (2 ml in each well of a 6-well plate; 1 ml in each well of a 24-well plate). Cell samples were digested with further incubation for 10 minutes in 0.05% trypsin and 0.53 mM EDTA (Gibco, BRL Gaithesburg, Md.) at 37° C. All cultures were plated at a final density of 1-3×10^4 cell, per well. For growth studies of monolayer cells, identical preparations were grown on the plastic surface of the culture plates. Both the monolayers and the cell suspensions were incubated at 37° C. in a moisture saturated incubator in 5% CO2 and air.
I used the in vitro cyst formation system of the present invention to analyze compounds that affect the process of cyst formation. To determine the therapeutic effectiveness of an agent, cyst-forming cells are suspended in a medium to which the agent has been added. These cells are then cultured on a solid phase without formation of a layer of cells on the surface, such as in the assay system described in Example 1. The extent to which the cells actually form cysts can be detected and compared to the extent of cyst formation expected if no agent were added. If the amount of cyst formation is lower than expected, then the agent is a good candidate for therapeutic intervention of cystic diseases.
The effects of various metabolic inhibitors on cyst formation were studied in cultures derived from day 21 postnatal CPK mice. […] Taxol (25 μM), a microtubule specific inhibitor, was from Calbiochem (La Jolla, Calif.). All other chemicals were obtained from Sigma Chemical Co. Cytosine arabinoside was added at the final concentration of 20 μg/ml to inhibit DNA synthesis; α-amanitin at 100 ng/ml to inhibit RNA synthesis; cycloheximide at 40 μg/ml to inhibit protein synthesis; amiloride at 1 mM to inhibit the renal epithelial Na^+ -H^+ exchange; ouabain at 0.5 mM to inhibit Na^+ -K^+ -ATPase; brefeldin-A at 10 μg/ml to inhibit transport of surface proteins; griseofulvin at 350 μM to inhibit microtubule function; colchicine at 10 μM to inhibit microtubule polymerization; and cytochalasin-B and cytochalasin-D at 10 μM to depolymerize actin filaments.
In the presence of these metabolic inhibitors in vitro, cyst formation was noted to be either present or absent; if present, the diameters of 20 cysts from a 0.2 ml aliquot were measured. In the same samples, ^3 H-dThd incorporation was also measured as described above. […] After each wash, cell clusters were collected by centrifuging at 200×g for 1 minute and the supernatant discarded. Washed cell clusters were resuspended in the original volume of growth medium without inhibitors, placed in agarose coated wells and incubated at 37° C. in a moisture saturated incubator in 5% CO2 and air.
In this table, the mean cyst size is reported as ±SD with a measurement of twenty cysts. The ^3 H-dThd incorporation is reported as ±SD using measurements of three wells. The * indicates […] versus control. […] The entries listed as "NA" in the table indicate data that is not available.

homozygous cpk mice = test: Survival of cpk mice on weekly griseofulvin (Example 9); type: in vivo, mouse
Protocol: Although the mechanism of its inhibitory activity is not presently understood, this antifungal agent is known to have a colchicine-like effect on mitosis.
Nine homozygous cpk mice, raised and identified as in Example 6 were treated with 25 μl of 24 mg/ml griseofulvin in DMSO through intraperitoneal injection beginning 10-12 days after birth. After the first treatment, the mice were administered with the same treatment once every week thereafter.

Murine CPK Cells [3] = test: In vitro cyst formation and cyst size in suspension culture of murine CPK cells; type: cell-based, mouse; settings: day 21, 24 h, final concentration per Table II (cytosine arabinoside 20 μg/ml, α-amanitin 100 ng/ml, cycloheximide 49 μg/ml, ouabain 1 mM, amiloride 1 mM, brefeldin-A 10 μg/ml, griseofulvin 350 μM, colchicine 10 μM, vinblastine 1 μM, nocodazole 30 μM, taxol 25 μM, cytochalasins 10 μM)
neonatal CPK kidneys = settings: triiodothyronine pharmacological doses; ouabain 0.2 mM; cited from earlier work
Na^+ K^+ -ATPase = settings: triiodothyronine; ouabain 0.2 mM; cited from earlier work

C=C[C@@]1(C)CC(=O)[C@]2(O)[C@@]3(C)[C@@H](O)CCC(C)(C)[C@@H]3[C@H](O)[C@H](OC(C)=O)[C@@]2(C)O1 [forskolin]
induction of cysts [1]: can be induced to produce cysts

COC1=CC(=O)C[C@@H](C)[C@]12Oc1c(Cl)c(OC)cc(OC)c1C2=O [Griseofulvin]
Cyst Size (Murine CPK Cells [2]; mean ± SD of twenty cysts, concentrations as in Table II, control 71 ± 22): 0 μm
cyst formation (in words) (Murine CPK Cells [2]; murine CPK cells, 24 h suspension culture, ouabain 0.5 mM, also 1 mM, b155 taxol 25 μM, colchicine 10 μM, vinblastine 1 μM, cytochalasins 10 μM, model species not given): inhibits the formation of cysts
minimum average lifespan (homozygous cpk mice; 25 μl of 24 mg/ml griseofulvin in DMSO i.p. weekly from 10-12 days, untreated controls 33.5±6.3 days, preliminary): at least 49±15.8 days
age of mice still alive (homozygous cpk mice; remaining three of nine mice, weekly griseofulvin i.p.): 78 days of age and 54 days of age and 63 days of age
age at death of individual mice (homozygous cpk mice; six of nine mice, weekly griseofulvin i.p.): 31 days of age and 34 days of age and 35 days of age and 41 days of age and 45 days of age and 60 days of age
Cyst Formation (+/-) (Murine CPK Cells [3]): -

N[C@@H](Cc1cc(I)c(Oc2ccc(O)c(I)c2)c(I)c1)C(=O)O [triiodothyronine]
proximal tubular cysts maintained / effect abolished (neonatal CPK kidneys): can be maintained
renal Na^+ K^+ -ATPase activity (in words) (Na^+ K^+ -ATPase): increase

epidermal growth factor: stimulates cyst formation of kidney epithelial cells in collagen
induction of cysts [1]: can be induced to produce cysts
